The record followed here is ChEMBL document CHEMBL2384972, “Tricyclic Pyrimidines As Inhibitors of DYRK1A/DYRK1B As Potential Treatment for Down's Syndrome or Alzheimer's Disease” (ACS Med Chem Lett, 2013).

Assay [1] deals with Dual specificity tyrosine-phosphorylation-regulated kinase 1B (Homo sapiens, UniProt Q9Y463). Description: Inhibition of recombinant DYRK1B (unknown origin) after 120 mins in presence of [33P]-ATP.
The target of assay [2] is Dual specificity tyrosine-phosphorylation-regulated kinase 1A (Homo sapiens, UniProt Q13627). Description: Inhibition of recombinant DYRK1A (unknown origin) after 120 mins in presence of [33P]-ATP.

Chain of Dual specificity tyrosine-phosphorylation-regulated kinase 1B (Q9Y463 whole entry): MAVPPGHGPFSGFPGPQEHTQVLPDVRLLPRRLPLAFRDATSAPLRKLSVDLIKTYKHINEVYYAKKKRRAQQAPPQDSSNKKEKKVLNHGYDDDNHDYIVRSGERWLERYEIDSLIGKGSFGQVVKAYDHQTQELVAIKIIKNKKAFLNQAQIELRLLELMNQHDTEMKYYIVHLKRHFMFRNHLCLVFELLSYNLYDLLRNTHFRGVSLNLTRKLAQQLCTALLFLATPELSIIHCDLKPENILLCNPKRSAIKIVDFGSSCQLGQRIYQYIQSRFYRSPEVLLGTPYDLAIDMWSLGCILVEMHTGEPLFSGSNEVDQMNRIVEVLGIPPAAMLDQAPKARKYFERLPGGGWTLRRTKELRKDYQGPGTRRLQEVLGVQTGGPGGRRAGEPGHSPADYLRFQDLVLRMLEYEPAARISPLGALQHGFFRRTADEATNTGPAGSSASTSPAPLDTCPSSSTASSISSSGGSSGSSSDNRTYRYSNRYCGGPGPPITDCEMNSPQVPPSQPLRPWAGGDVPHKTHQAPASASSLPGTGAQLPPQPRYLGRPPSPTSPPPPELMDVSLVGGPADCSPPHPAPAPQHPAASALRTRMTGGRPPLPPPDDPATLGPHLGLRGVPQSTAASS

Take `COC(=N)c1nc2ccc3ncnc(Nc4ccc(F)cc4Br)c3c2s1`: the 50% inhibitory concentration (IC50) (commonly the concentration that inhibits the measured activity by half) in assay [1] worked out at 6.55 nM; in assay [2], 3.6 nM.
For `COC(=N)c1nc2ccc3ncnc(Nc4ccc(Br)cc4F)c3c2s1` the same measures were 0.24 nM and 0.16 nM.
